From patent US6124269A, “2-Halo-6-O-substituted ketolide derivatives” (priority 1998, dated 2000)
≈ marks a conversion by molar mass, not a printed value.

Columns and labels:
Format in all cases: cell-based
[1] = system: Staphylococcus aureus ATCC 6538P; assay: In vitro agar dilution MIC, organism code AA; conditions: unit assumed
Method: (§1) Representative compounds of the present invention were assayed in vitro for antibacterial activity as follows: Twelve petri dishes containing successive aqueous dilutions of the test compound mixed with 10 mL of sterilized Brain Heart Infusion (BHI) agar (Difco 0418-01-5) were prepared. Each plate was inoculated with 1:100 (or 1:10 for slow-growing strains, such as Micrococcus and Streptococcus) dilutions of up to 32 different microorganisms, using a Steers replicator block. The inoculated plates were incubated at 35-37° C. for 20 to 24 hours. In addition, a control plate, using BHI agar containing no test compound, was prepared and incubated at the beginning and end of each test.
(§2) An additional plate containing a compound having known susceptibility patterns for the organisms being tested and belonging to the same antibiotic class as the test compound was also prepared and incubated as a further control, as well as to provide test-to-test comparability.
(§3) After incubation, each plate was visually inspected. The minimum inhibitory concentration (MIC) was defined as the lowest concentration of drug yielding no growth, a slight haze, or sparsely isolated colonies on the inoculum spot as compared to the growth control.

[2] = system: Staphylococcus aureus A5177; assay: In vitro agar dilution MIC, organism code BB; conditions: in µg/mL (unit assumed)
Method: as §1, §2, §3

[3] = system: Staphylococcus aureus A-5278; assay: In vitro agar dilution MIC, organism code CC; conditions: unit assumed
Method: as §1, §2, §3

[4] = system: Staphylococcus aureus CMX 642A; assay: In vitro agar dilution MIC, organism code DD; conditions: Table 1B, unit assumed
Method: as §1, §2, §3

[5] = system: Staphylococcus aureus NCTC10649M; assay: In vitro agar dilution MIC, organism code EE; conditions: Table 1B, unit assumed
Method: as §1, §2, §3

[6] = system: Staphylococcus aureus CMX 553; assay: In vitro agar dilution MIC, organism code FF; conditions: Table 1B, unit assumed
Method: as §1, §2, §3

[7] = system: Staphylococcus aureus 1775; assay: In vitro agar dilution MIC, organism code GG; conditions: Table 1B, unit assumed
Method: as §1, §2, §3

[8] = system: Staphylococcus epidermidis 3519; assay: In vitro agar dilution MIC, organism code HH; conditions: Table 1B, in µg/mL (unit assumed)
Method: as §1, §2, §3

[9] = system: Enterococcus faecium ATCC 8043; assay: In vitro agar dilution MIC, organism code II; conditions: Table 1B, unit assumed
Method: as §1, §2, §3

[10] = system: Streptococcus bovis A-5169; assay: In vitro agar dilution MIC, organism code JJ; conditions: Table 1B, unit assumed
Method: as §1, §2, §3

[11] = system: Streptococcus agalactiae CMX 508; assay: In vitro agar dilution MIC, organism code KK; conditions: Table 1B, unit assumed
Method: as §1, §2, §3

[12] = system: Streptococcus pyogenes EES61; assay: In vitro agar dilution MIC, organism code LL; conditions: unit assumed
Method: as §1, §2, §3

[13] = system: Streptococcus pyogenes 930; assay: In vitro agar dilution MIC, organism code MM; conditions: unit assumed
Method: as §1, §2, §3

[14] = system: Streptococcus pyogenes PIU 2548; assay: In vitro agar dilution MIC, organism code NN; conditions: unit assumed
Method: as §1, §2, §3

[15] = system: Micrococcus luteus ATCC 9341; assay: In vitro agar dilution MIC, organism code OO; conditions: Table 1B, unit assumed
Method: as §1, §2, §3

[16] = system: Micrococcus luteus ATCC 4698; assay: In vitro agar dilution MIC, organism code PP; conditions: Table 1B, in µg/mL (unit assumed)
Method: as §1, §2, §3

[17] = system: Escherichia coli JUHL; assay: In vitro agar dilution MIC, organism code QQ; conditions: Table 1B, in µg/mL (unit assumed)
Method: as §1, §2, §3

[18] = system: Escherichia coli SS; assay: In vitro agar dilution MIC, organism code RR; conditions: Table 1B, in µg/mL (unit assumed)
Method: as §1, §2, §3

[19] = system: Escherichia coli DC-2; assay: In vitro agar dilution MIC, organism code SS; conditions: Table 1B, unit assumed
Method: as §1, §2, §3

[20] = system: Candida albicans CCH 442; assay: In vitro agar dilution MIC, organism code TT; conditions: Table 1B, unit assumed
Method: as §1, §2, §3

[21] = system: Mycobacterium smegmatis ATCC 114; assay: In vitro agar dilution MIC, organism code UU; conditions: Table 1B, in µg/mL (unit assumed)
Method: as §1, §2, §3

[22] = system: Nocardia asteroides ATCC 9970; assay: In vitro agar dilution MIC, organism code VV; conditions: Table 1B, in µg/mL (unit assumed)
Method: as §1
as §2, with “comparability. Erythromycin A was used for this purpose.” for “comparability.”
as §3

[23] = system: Haemophilis influenzae DILL AMP R; assay: In vitro agar dilution MIC, organism code WW; conditions: unit assumed
Method: as §1, §2, §3

[24] = system: Streptococcus pneumoniae ATCC 6303; assay: In vitro agar dilution MIC, organism code XX; conditions: unit assumed
Method: as §1, §2, §3

[25] = system: Streptococcus pneumoniae GYR 1171; assay: In vitro agar dilution MIC, organism code YY; conditions: Table 1B, unit assumed
Method: as §1, §2, §3

[26] = system: Streptococcus pneumoniae 5979; assay: In vitro agar dilution MIC, organism code ZZ; conditions: unit assumed
Method: as §1, §2, §3

[27] = system: Streptococcus pneumoniae 5649; assay: In vitro agar dilution MIC, organism code ZZA; conditions: unit assumed
Method: as §1, §2, §3

SMILES: CC[C@H]1OC(=O)C(C)(Cl)C(=O)[C@H](C)[C@@H](O[C@@H]2O[C@H](C)C[C@H](N(C)C)[C@H]2O)[C@](C)(OC)C[C@@H](C)C2=NCCN3C(=O)O[C@@]1(C)[C@H]3[C@H]2C (stereo partly shown) [Example 2]
- MIC ([1]; Table 1B): 25 µg/mL (≈ 37.2 µM)
- MIC ([1]; Table 1C): 25 µg/mL (≈ 37.2 µM)
- MIC ([2]; Table 1B): 25
- MIC ([2]; Table 1C): 25
- MIC ([3]; Table 1B): > 100 µg/mL
- MIC ([3]; Table 1C): > 100 µg/mL
- MIC [4]: 50 µg/mL (≈ 74.4 µM)
- MIC [5]: 25 µg/mL (≈ 37.2 µM)
- MIC [6]: 25 µg/mL (≈ 37.2 µM)
- MIC [7]: > 100 µg/mL
- MIC [8]: 25
- MIC [9]: 12.5 µg/mL (≈ 18.6 µM)
- MIC [10]: 1.56 µg/mL (≈ 2.32 µM)
- MIC [11]: 3.1 µg/mL (≈ 4.61 µM)
- MIC ([12]; Table 1B): 3.1 µg/mL (≈ 4.61 µM)
- MIC ([12]; Table 1C): 4 µg/mL (≈ 5.95 µM)
- MIC ([13]; Table 1B): > 100 µg/mL
- MIC ([13]; Table 1C): 128 µg/mL (≈ 190 µM)
- MIC ([14]; Table 1B): 6.2 µg/mL (≈ 9.22 µM)
- MIC ([14]; Table 1C): 16 µg/mL (≈ 23.8 µM)
- MIC [15]: 3.1 µg/mL (≈ 4.61 µM)
- MIC [16]: 6.2
- MIC [17]: > 100
- MIC [18]: 0.78
- MIC [19]: > 100 µg/mL
- MIC [20]: > 100 µg/mL
- MIC [21]: > 100
- MIC [22]: 50
- MIC ([23]; Table 1B): 32 µg/mL (≈ 47.6 µM)
- MIC ([23]; Table 1C): 32 µg/mL (≈ 47.6 µM)
- MIC ([24]; Table 1B): 4 µg/mL (≈ 5.95 µM)
- MIC ([24]; Table 1C): 4 µg/mL (≈ 5.95 µM)
- MIC [25]: 4 µg/mL (≈ 5.95 µM)
- MIC ([26]; Table 1B): > 128 µg/mL
- MIC ([26]; Table 1C): > 128 µg/mL
- MIC ([27]; Table 1B): 4 µg/mL (≈ 5.95 µM)
- MIC ([27]; Table 1C): 4 µg/mL (≈ 5.95 µM)

SMILES: CC[C@H]1OC(=O)C(C)(F)C(=O)[C@H](C)[C@@H](O[C@@H]2O[C@H](C)C[C@H](N(C)C)[C@H]2O)[C@](C)(OCC#CC(=O)c2ccccc2)C[C@@H](C)C(=O)[C@H](C)[C@H]2NC(=O)O[C@@]21C (stereo partly shown) [Example 23]
- MIC ([1]; Table 1B): 1.56 µg/mL (≈ 2.06 µM)
- MIC ([2]; Table 1B): 0.78
- MIC ([3]; Table 1B): > 100 µg/mL
- MIC [4]: 1.56 µg/mL (≈ 2.06 µM)
- MIC [5]: 1.56 µg/mL (≈ 2.06 µM)
- MIC [6]: 0.78 µg/mL (≈ 1.03 µM)
- MIC [7]: > 100 µg/mL
- MIC [8]: 1.56
- MIC [9]: 0.78 µg/mL (≈ 1.03 µM)
- MIC [10]: 0.1 µg/mL (≈ 0.132 µM)
- MIC [11]: 0.39 µg/mL (≈ 0.514 µM)
- MIC ([12]; Table 1B): 0.39 µg/mL (≈ 0.514 µM)
- MIC ([13]; Table 1B): > 100 µg/mL
- MIC ([14]; Table 1B): 1.56 µg/mL (≈ 2.06 µM)
- MIC [15]: 0.2 µg/mL (≈ 0.264 µM)
- MIC [16]: 1.56
- MIC [17]: > 100
- MIC [18]: 3.1
- MIC [19]: > 100 µg/mL
- MIC [20]: > 100 µg/mL
- MIC [21]: 3.1
- MIC [22]: 0.78
- MIC ([23]; Table 1B): 8 µg/mL (≈ 10.5 µM)
- MIC ([24]; Table 1B): 0.03 µg/mL (≈ 0.0395 µM)
- MIC [25]: 0.03 µg/mL (≈ 0.0395 µM)
- MIC ([26]; Table 1B): > 128 µg/mL
- MIC ([27]; Table 1B): 2 µg/mL (≈ 2.64 µM)

SMILES: CC[C@H]1OC(=O)[C@@](C)(F)C(=O)[C@H](C)[C@@H](O[C@@H]2O[C@H](C)C[C@H](N(C)C)[C@H]2O)[C@](C)(OC/C=C/c2ccc3ncccc3c2)C[C@@H](C)C(=O)[C@H](C)[C@H]2NC(=O)O[C@@]21C [Example 10]
- MIC ([1]; Table 1B): 0.1 µg/mL (≈ 0.128 µM)
- MIC ([2]; Table 1B): 0.1
- MIC ([3]; Table 1B): > 100 µg/mL
- MIC [4]: 0.1 µg/mL (≈ 0.128 µM)
- MIC [5]: 0.1 µg/mL (≈ 0.128 µM)
- MIC [6]: 0.1 µg/mL (≈ 0.128 µM)
- MIC [7]: > 100 µg/mL
- MIC [8]: 0.2
- MIC [9]: 0.05 µg/mL (≈ 0.0638 µM)
- MIC [10]: 0.01 µg/mL (≈ 0.0128 µM)
- MIC [11]: 0.05 µg/mL (≈ 0.0638 µM)
- MIC ([12]; Table 1B): 0.02 µg/mL (≈ 0.0255 µM)
- MIC ([13]; Table 1B): 0.39 µg/mL (≈ 0.497 µM)
- MIC ([14]; Table 1B): 0.1 µg/mL (≈ 0.128 µM)
- MIC [15]: 0.02 µg/mL (≈ 0.0255 µM)
- MIC [16]: 0.1
- MIC [17]: 100
- MIC [18]: 0.1
- MIC [19]: 100 µg/mL (≈ 128 µM)
- MIC [20]: > 100 µg/mL
- MIC [21]: 0.1
- MIC [22]: 0.01
- MIC ([23]; Table 1B): 2 µg/mL (≈ 2.55 µM)
- MIC ([24]; Table 1B): 0.015 µg/mL (≈ 0.0191 µM)
- MIC [25]: 0.015 µg/mL (≈ 0.0191 µM)
- MIC ([26]; Table 1B): 0.25 µg/mL (≈ 0.319 µM)
- MIC ([27]; Table 1B): 0.25 µg/mL (≈ 0.319 µM)
